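Interpolation was linear, between the two tested concentrations surrounding the appropriate level; five concentrations were tested over 48 hours in 96-well plates. The concentration for 50% growth inhibition is given as GI50. TGI: concentration producing complete growth inhibition.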
Columns and labels:
Assay in all cases: DTP human tumour cell line panel, 48 h
[1] = system: BT-549 breast
[2] = system: HOP-62 NSCLC
[3] = system: NCI-H23 lung
[4] = system: HCC-2998 colon
[5] = system: MOLT-4 leukemia
[6] = system: NCI/ADR-RES ovarian
[7] = system: SF-295 CNS
[8] = system: CCRF-CEM leukemia
[9] = system: NCI-H226 lung
[10] = system: U251 CNS
[11] = system: A549 NSCLC
[12] = system: SF-268 CNS
[13] = system: SK-MEL-5 melanoma
[14] = system: KM12 colon
[15] = system: HS 578T breast
[16] = system: UACC-257 melanoma
[17] = system: SN12C renal
[18] = system: DU-145 prostate
[19] = system: IGROV1 ovarian
[20] = system: LOX IMVI melanoma
[21] = system: UACC-62 melanoma
[22] = system: A498 renal
[23] = system: PC-3 prostate
[24] = system: EKVX NSCLC
[25] = system: OVCAR-3 ovarian
[26] = system: UO-31 renal
[27] = system: M14 melanoma
[28] = system: SNB-19 CNS
[29] = system: SNB-75 CNS
[30] = system: TK-10 renal
[31] = system: HCT-15 colon
[32] = system: OVCAR-5 ovarian
[33] = system: SK-MEL-28 melanoma
[34] = system: HCT-116 colon
[35] = system: 786-0 renal
[36] = system: NCI-H460 lung
[37] = system: MALME-3M melanoma
[38] = system: SF-539 CNS
[39] = system: NCI-H522 lung
[40] = system: OVCAR-8 ovarian
[41] = system: MDA-MB-231 breast
[42] = system: OVCAR-4 ovarian
[43] = system: SK-OV-3 ovarian
[44] = system: RXF 393 renal
[45] = system: HOP-92 NSCLC
[46] = system: CAKI-1 renal
[47] = system: HT29 colon
[48] = system: MCF7 breast
[49] = system: K-562 leukemia
[50] = system: SK-MEL-2 melanoma
[51] = system: COLO 205 colon
[52] = system: SW-620 colon
[53] = system: RPMI-8226 leukemia
[54] = system: T-47D breast
[55] = system: ACHN renal

COc1cccc(/C(COc2ccc3c(c2)oc(=O)c2cc(OC)ccc23)=N/O)c1
GI50 [1]: 11.7 µM | TGI [1]: > 100 µM | GI50 [2]: 6.9 µM | TGI [2]: > 100 µM | GI50 [3]: 33.4 µM | TGI [3]: > 100 µM | GI50 [4]: 7.78 µM | TGI [4]: > 100 µM | GI50 [5]: 5.61 µM | TGI [5]: > 100 µM | GI50 [6]: 3.63 µM | TGI [6]: > 100 µM | GI50 [7]: 8.22 µM | TGI [7]: > 100 µM | GI50 [8]: 11.4 µM | TGI [8]: > 100 µM | GI50 [9]: 51.9 µM | TGI [9]: > 100 µM | GI50 [10]: 4.35 µM | TGI [10]: > 100 µM | GI50 [11]: 7.57 µM | TGI [11]: > 100 µM | GI50 [12]: 9.58 µM | TGI [12]: > 100 µM | GI50 [13]: 4.95 µM | TGI [13]: 80.5 µM | GI50 [14]: 3.86 µM | TGI [14]: > 100 µM | GI50 [15]: 14.5 µM | TGI [15]: > 100 µM | GI50 [16]: 34.8 µM | TGI [16]: > 100 µM | GI50 [17]: 14.2 µM | TGI [17]: > 100 µM | GI50 [18]: 26 µM | TGI [18]: > 100 µM | GI50 [19]: 3.8 µM | TGI [19]: > 100 µM | GI50 [20]: 7.14 µM | TGI [20]: > 100 µM | GI50 [21]: 4.25 µM | TGI [21]: > 100 µM | GI50 [22]: 3.02 µM | TGI [22]: 25.8 µM | GI50 [23]: 6.29 µM | TGI [23]: > 100 µM | GI50 [24]: 16.1 µM | TGI [24]: > 100 µM | GI50 [25]: 4.18 µM | TGI [25]: > 100 µM | GI50 [26]: 7.11 µM | TGI [26]: 75.6 µM | GI50 [27]: 3.62 µM | TGI [27]: > 100 µM | GI50 [28]: 3.66 µM | TGI [28]: > 100 µM | GI50 [29]: 2.36 µM | TGI [29]: 9.61 µM | GI50 [30]: 16.5 µM | TGI [30]: > 100 µM | GI50 [31]: 3.99 µM | TGI [31]: > 100 µM | GI50 [32]: > 100 µM | TGI [32]: > 100 µM | GI50 [33]: 4.28 µM | TGI [33]: > 100 µM | GI50 [34]: 4.27 µM | TGI [34]: > 100 µM | GI50 [35]: 9.66 µM | TGI [35]: > 100 µM | GI50 [36]: 3.81 µM | TGI [36]: > 100 µM | GI50 [37]: > 100 µM | TGI [37]: > 100 µM | GI50 [38]: 6.55 µM | TGI [38]: 81.5 µM | GI50 [39]: 3.12 µM | TGI [39]: 9.47 µM | GI50 [40]: 9.77 µM | TGI [40]: > 100 µM | GI50 [41]: 4.37 µM | TGI [41]: 71 µM | GI50 [42]: 18.8 µM | TGI [42]: > 100 µM | GI50 [43]: 66.1 µM | TGI [43]: > 100 µM | GI50 [44]: > 100 µM | TGI [44]: > 100 µM | GI50 [45]: 37 µM | TGI [45]: > 100 µM | GI50 [46]: 6.7 µM | TGI [46]: > 100 µM | GI50 [47]: 3.38 µM | TGI [47]: > 100 µM | GI50 [48]: 4.02 µM | TGI [48]: > 100 µM | GI50 [49]: 4.43 µM | TGI [49]: > 100 µM | GI50 [50]: 6.62 µM | TGI [50]: > 100 µM | GI50 [51]: 4.25 µM | TGI [51]: > 100 µM | GI50 [52]: 3.9 µM | TGI [52]: > 100 µM | GI50 [53]: 4.76 µM | TGI [53]: > 100 µM | GI50 [54]: 4.85 µM | TGI [54]: > 100 µM | GI50 [55]: 3.64 µM | TGI [55]: > 100 µM
